Measured values reported in PubChem BioAssay AID330 (DTP/NCI, 2004).
Values joined by “and” are separate entries in the source; they are usually repeats but may differ in a detail not shown here. Equal values may be shown once. Toxic doses and inconclusive results are not listed. How the source made its calls: active means survival T/C of 150% or more; inactive means T/C below 125% in these data.

Tested on: P388 leukemia ip, CD2F1 mice, survival T/C
Assay: NCI In Vivo Anticancer Drug Screen. Data for tumor model P388 Leukemia (intraperitoneal) in CD2F1 (CDF1) mice
Conditions: endpoint: median survival time, higher = longer survival
Procedure, shortened: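 Mice carrying the transplanted tumor received test compound or vehicle. Survival was recorded in each group, and the value is the treated-group measurement divided by that of the vehicle-treated control group.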

[1] = dose: 50.0 mg/kg/injection, schedule: Q01DX009 (ip), vehicle: saline with Tween-80
[2] = dose: 100.0 mg/kg/injection, schedule: Q01DX009 (ip), vehicle: saline with Tween-80
[3] = dose: 200.0 mg/kg/injection, schedule: Q01DX009 (ip), vehicle: saline with Tween-80
[4] = dose: 60.0 mg/kg/injection, schedule: Q01DX005 (ip), vehicle: saline with Tween-80
[5] = dose: 120.0 mg/kg/injection, schedule: Q01DX005 (ip), vehicle: saline with Tween-80
[6] = dose: 240.0 mg/kg/injection, schedule: Q01DX005 (ip), vehicle: saline with Tween-80
[7] = dose: 50.0 mg/kg/injection, schedule: Q01DX009 (ip), vehicle: Klucel (hydroxypropylcellulose) (HPC)
[8] = dose: 100.0 mg/kg/injection, schedule: Q01DX009 (ip), vehicle: Klucel (hydroxypropylcellulose) (HPC)
[9] = dose: 200.0 mg/kg/injection, schedule: Q01DX009 (ip), vehicle: Klucel (hydroxypropylcellulose) (HPC)
[10] = dose: 100.0 mg/kg/injection, schedule: Q04DX002 (ip), vehicle: saline with Tween-80
[11] = dose: 200.0 mg/kg/injection, schedule: Q04DX002 (ip), vehicle: saline with Tween-80
[12] = dose: 400.0 mg/kg/injection, schedule: Q04DX002 (ip), vehicle: saline with Tween-80
[13] = dose: 50.0 mg/kg/injection, schedule: Q01DX005 (ip), vehicle: Klucel (hydroxypropylcellulose) (HPC)
[14] = dose: 100.0 mg/kg/injection, schedule: Q01DX005 (ip), vehicle: Klucel (hydroxypropylcellulose) (HPC)
[15] = dose: 200.0 mg/kg/injection, schedule: Q01DX005 (ip), vehicle: Klucel (hydroxypropylcellulose) (HPC)
[16] = dose: 100.0 mg/kg/injection, schedule: Q04DX002 (ip), vehicle: Klucel (hydroxypropylcellulose) (HPC)
[17] = dose: 200.0 mg/kg/injection, schedule: Q04DX002 (ip), vehicle: Klucel (hydroxypropylcellulose) (HPC)

Measured: T/C

CCN(CC)CC(=O)c1ccc(O)c(O)c1
inactive: [1] 91 % of control | [2] 98 % of control and 106 % of control | [3] 112 % of control and 123 % of control | dose: 400.0 mg/kg/injection, schedule: Q01DX009 (ip), vehicle: saline with Tween-80 116 % of control and 117 % of control

CCOC(=O)/C(C#N)=C(O)\C(=C\c1ccc(Cl)cc1)NC(=O)c1ccc(NC(C)=O)cc1
inactive: [4] 108 % of control | [5] 97 % of control | [6] 97 % of control

NOCc1cccc([N+](=O)[O-])c1
inactive: dose: 50.0 mg/kg/injection, schedule: Q01DX009 (ip), vehicle: saline 104 % of control | dose: 100.0 mg/kg/injection, schedule: Q01DX009 (ip), vehicle: saline 95 % of control | dose: 200.0 mg/kg/injection, schedule: Q01DX009 (ip), vehicle: saline 100 % of control

Cc1c(Cc2ccccc2)c(N2CCOCC2)n2c(nc3ccccc32)c1C#N
inactive: [4] 91 % of control | [5] 88 % of control | [6] 91 % of control

CCC1(CC(=O)O)OCCc2c1[nH]c1c(C)c(Cl)ccc21 (stereo not drawn)
inactive: dose: 50.0 mg/kg/injection, schedule: Q01DX001 (ip), vehicle: Klucel (hydroxypropylcellulose) (HPC) 101 % of control | dose: 100.0 mg/kg/injection, schedule: Q01DX001 (ip), vehicle: Klucel (hydroxypropylcellulose) (HPC) 101 % of control | dose: 200.0 mg/kg/injection, schedule: Q01DX001 (ip), vehicle: Klucel (hydroxypropylcellulose) (HPC) 100 % of control

O=C1NC(=O)c2c(Br)c(Br)c(Br)c(Br)c21
inactive: [7] 109 % of control | [8] 109 % of control | [9] 105 % of control | dose: 400.0 mg/kg/injection, schedule: Q01DX009 (ip), vehicle: Klucel (hydroxypropylcellulose) (HPC) 96 % of control

Cn1c(=O)c2c(nnc(-c3ccc(Cl)c(Cl)c3)[n+]2[O-])n(C)c1=O
inactive: dose: 25.0 mg/kg/injection, schedule: Q01DX001 (ip), vehicle: Klucel (hydroxypropylcellulose) (HPC) 103 % of control

COc1ccccc1-n1c(=S)n(-c2ccccc2C)c2nc3ccccc3nc1/c2=N\Nc1ccccn1
inactive: dose: 50.0 mg/kg/injection, schedule: Q01DX005 (ip), vehicle: saline with Tween-80 100 % of control | dose: 100.0 mg/kg/injection, schedule: Q01DX005 (ip), vehicle: saline with Tween-80 102 % of control

COC(=O)c1n[nH]c(C(C)C)c1N=NN(C)C
inactive: dose: 6.25 mg/kg/injection, schedule: Q01DX009 (ip), vehicle: saline 107 % of control and 113 % of control | dose: 12.5 mg/kg/injection, schedule: Q01DX009 (ip), vehicle: saline 116 % of control and 122 % of control

CCC1C2CC3C4N(C)c5ccccc5C45CC(C2C5O)N3C1O (stereo not drawn)
inactive: dose: 0.31 mg/kg/injection, schedule: Q01DX009 (ip), vehicle: saline 102 % of control and 106 % of control | dose: 0.62 mg/kg/injection, schedule: Q01DX009 (ip), vehicle: saline 99 % of control and 106 % of control and 121 % of control | dose: 1.25 mg/kg/injection, schedule: Q01DX009 (ip), vehicle: saline 102 % of control and 106 % of control and 95 % of control | dose: 2.5 mg/kg/injection, schedule: Q01DX009 (ip), vehicle: saline 99 % of control and 105 % of control (2×) | dose: 5.0 mg/kg/injection, schedule: Q01DX009 (ip), vehicle: saline 102 % of control | dose: 10.0 mg/kg/injection, schedule: Q01DX009 (ip), vehicle: saline 105 % of control | dose: 15.0 mg/kg/injection, schedule: Q01DX005 (ip), vehicle: saline with Tween-80 100 % of control | dose: 30.0 mg/kg/injection, schedule: Q01DX005 (ip), vehicle: saline with Tween-80 94 % of control | [4] 93 % of control and 100 % of control | [5] 93 % of control

O=C1CSC(c2cc(Cl)ccc2[N+](=O)[O-])N1c1nncs1 (stereo not drawn)
inactive: [10] 87 % of control | [11] 87 % of control | [12] 88 % of control

O=C1CC2c3c(OCc4ccccc4)cc(OCc4ccccc4)cc3OC2O1 (stereo not drawn)
inactive: dose: 8.75 mg/kg/injection, schedule: Q01DX005 (ip), vehicle: Klucel (hydroxypropylcellulose) (HPC) 88 % of control | dose: 17.5 mg/kg/injection, schedule: Q01DX005 (ip), vehicle: Klucel (hydroxypropylcellulose) (HPC) 91 % of control | dose: 35.0 mg/kg/injection, schedule: Q01DX005 (ip), vehicle: Klucel (hydroxypropylcellulose) (HPC) 88 % of control

C(=C\c1ccc(-c2nc3ccccc3o2)cc1)/c1ccc(-c2nc3ccccc3o2)cc1
inactive: [7] 100 % of control | [8] 101 % of control | [9] 102 % of control

COc1ccc(C2CC(=O)N(c3nc(C)cc(C)n3)C(=O)C2)cc1
inactive: dose: 100.0 mg/kg/injection, schedule: Q04DX003 (ip), vehicle: saline 96 % of control | dose: 200.0 mg/kg/injection, schedule: Q04DX003 (ip), vehicle: saline 102 % of control | dose: 400.0 mg/kg/injection, schedule: Q04DX003 (ip), vehicle: saline 100 % of control

C=CCOC(=O)C1=C(O[Si]C(C)(C)C)CCCC1
inactive: [1] 96 % of control | [2] 99 % of control | [3] 109 % of control

Cc1cc2c(c3c1C(C)CCC3=O)C(C)(C)CC2(C)C (stereo not drawn)
inactive: dose: 50.0 mg/kg/injection, schedule: Q01DX005 (ip), vehicle: saline + Tween-80 + alcohol 101 % of control | dose: 100.0 mg/kg/injection, schedule: Q01DX005 (ip), vehicle: saline + Tween-80 + alcohol 108 % of control | dose: 200.0 mg/kg/injection, schedule: Q01DX005 (ip), vehicle: saline + Tween-80 + alcohol 104 % of control

COC(=O)/C=C(\C(=O)OC)C1=C(N2CCCC2)CC(C)(C)CC1=O
inactive: [13] 102 % of control | [14] 100 % of control and 95 % of control | [15] 100 % of control and 101 % of control

NC(=S)n1nc(-c2ccccc2)c(N=Nc2ccccc2[N+](=O)[O-])c1-c1ccccc1
inactive: [16] 99 % of control | [17] 110 % of control | dose: 400.0 mg/kg/injection, schedule: Q04DX002 (ip), vehicle: Klucel (hydroxypropylcellulose) (HPC) 105 % of control

CCCc1c(Cl)[nH]c(=O)n(C)c1=O
inactive: [13] 111 % of control | [14] 111 % of control | [15] 97 % of control

CC1(C)NC(=O)C2(CC(O)C(O)C(OC(=O)c3ccccc3)C2)O1 (stereo not drawn)
inactive: dose: 25.0 mg/kg/injection, schedule: Q01DX005 (ip), vehicle: saline 102 % of control | dose: 50.0 mg/kg/injection, schedule: Q01DX005 (ip), vehicle: saline 94 % of control | dose: 100.0 mg/kg/injection, schedule: Q01DX005 (ip), vehicle: saline 99 % of control

CCc1cccc(CC)c1NC(=S)NC(=O)c1ccccc1
inactive: [1] 95 % of control | [2] 96 % of control | [3] 96 % of control

O=C(Sc1ccccc1)N1CCN(C(=O)Sc2ccccc2)CC1
inactive: [7] 100 % of control | [8] 100 % of control | [9] 109 % of control

CCC(CO)[N-]CC[N-]C(CC)CO.CCC(CO)[N-]CC[N-]C(CC)CO.O.O.[Pd+2].[Pd+2] (stereo not drawn)
inactive: [13] 91 % of control | [14] 97 % of control | [15] 98 % of control

O=C(NC(=O)C(F)(F)F)Nc1ccc(Cl)cc1
inactive: [1] 99 % of control | [2] 105 % of control

CC1C(=O)OC2C1CCC1(C)C=C(Cl)C(=O)C3(C)OC213 (stereo not drawn)
inactive: dose: 50.0 mg/kg/injection, schedule: Q04DX002 (ip), vehicle: saline with Tween-80 100 % of control | [10] 100 % of control | [11] 100 % of control

CCCCCCCCCC(C)(C)NP(=S)(OCC)OCC (tested in a mixture with another compound)
inactive: [7] 105 % of control | [8] 105 % of control | [9] 100 % of control

COC1=CC[C@H]2[C@H]3Cc4ccc(OC)c5c4[C@@]2(CCN3CC2CC2)C1O5 (stereo partly drawn)
inactive: [16] 97 % of control | [17] 102 % of control

O=C(c1ccccc1)C(N=Nc1ccccc1)(c1ccccc1)c1ccccc1
inactive: [4] 101 % of control | [5] 118 % of control | [6] 100 % of control

CNCC(=O)c1ccc(O)c(O)c1N=O
inactive: [10] 114 % of control | [11] 108 % of control | [12] 108 % of control

O=P(CSCCO)(c1ccccc1)c1ccccc1
inactive: [4] 89 % of control | [5] 93 % of control | [6] 97 % of control

CC1(C)N=C(N)N=C(N)N1c1ccc(OCCCOc2ccc(S(=O)(=O)F)cc2)c(Cl)c1
inactive: dose: 12.5 mg/kg/injection, schedule: Q04DX003 (ip), vehicle: saline 120 % of control | dose: 25.0 mg/kg/injection, schedule: Q04DX003 (ip), vehicle: saline 115 % of control

COc1cccc2[nH]c(-c3ccccn3)nc12
inactive: [1] 95 % of control | [2] 104 % of control | [3] 95 % of control
